Data published in patent US10246411B2, “(Z)-3,4,5-trimethoxystyrylbenzenesulfonamides as potential anticancer agents” (COUNCIL OF SCIENTIFIC & INDUSTRIAL RESEARCH, priority 2014, dated 2019).
Where two headings read alike, the source gives them in different places.

Key:
NCI-H23 = experiment: In vitro cytotoxicity (NCI protocol, SRB), NCI-H23; settings: Homo sapiens, NCI-H23, 48 h
MDA-MB-435 [1] = experiment: In vitro cytotoxicity (NCI protocol, SRB), MDA-MB-435 (melanoma panel); settings: Melanoma MDA-MB-435, 48 h exposure
CCRF-CEM = experiment: In vitro cytotoxicity (NCI protocol, SRB), CCRF-CEM; settings: Homo sapiens, 48 h
BT-549 = experiment: In vitro cytotoxicity (NCI protocol, SRB), BT-549; settings: Homo sapiens, BT-549, 48 h
ACHN = experiment: In vitro cytotoxicity (NCI protocol, SRB), ACHN; settings: Homo sapiens, 48 h
HOP92 = experiment: In vitro cytotoxicity (NCI protocol, SRB), HOP92; settings: Homo sapiens, HOP-92, 48 h
NCI-H522 = experiment: In vitro cytotoxicity (NCI protocol, SRB), NCI-H522; settings: Homo sapiens, NCI-H522, 48 h
SK-MEL-28 = experiment: In vitro cytotoxicity (NCI protocol, SRB), SK-MEL-28; settings: Homo sapiens, SK-MEL-28, 48 h
TK-10 = experiment: In vitro cytotoxicity (NCI protocol, SRB), TK-10; settings: Homo sapiens, TK-10, 48 h
MOLT-4 = experiment: In vitro cytotoxicity (NCI protocol, SRB), MOLT-4; settings: Homo sapiens, MOLT-4, 48 h
786-0 = experiment: In vitro cytotoxicity (NCI protocol, SRB), 786-0; settings: Homo sapiens, 786-0, 48 h
SW-620 = experiment: In vitro cytotoxicity (NCI protocol, SRB), SW-620; settings: Homo sapiens, SW-620, 48 h
SNB -19 = experiment: In vitro cytotoxicity (NCI protocol, SRB), SNB -19; settings: Homo sapiens, SNB-19, 48 h
UACC-62 = experiment: In vitro cytotoxicity (NCI protocol, SRB), UACC-62; settings: Homo sapiens, UACC-62, 48 h
COLO-205 = experiment: In vitro cytotoxicity (NCI protocol, SRB), COLO-205; settings: Homo sapiens, COLO 205, 48 h
IGROV1 = experiment: In vitro cytotoxicity (NCI protocol, SRB), IGROV1; settings: Homo sapiens, IGROV-1, 48 h
SF-268 = experiment: In vitro cytotoxicity (NCI protocol, SRB), SF-268; settings: Homo sapiens, SF-268, 48 h
MDA-MB-435 [2] = experiment: In vitro cytotoxicity (NCI protocol, SRB), MDA-MB-435 (breast panel line); settings: Homo sapiens, MDA-MB-435, 48 h
UO-31 = experiment: In vitro cytotoxicity (NCI protocol, SRB), UO-31; settings: Homo sapiens, UO-31, 48 h
UACC-257 = experiment: In vitro cytotoxicity (NCI protocol, SRB), UACC-257; settings: Homo sapiens, UACC-257, 48 h
HCT-15 = experiment: In vitro cytotoxicity (NCI protocol, SRB), HCT-15; settings: Homo sapiens, HCT-15, 48 h
human tumor cell lines = experiment: In vitro cytotoxicity (NCI protocol, SRB), whole panel / mean graph midpoints; assay type: cell-based; settings: for GI50: Homo sapiens; for Log10GI50 mean graph mid point (MG_MID) / Log10LC50 mean graph mid point (MG_MID) / Log10TGI mean graph mid point (MG_MID): mean over human tumor cell lines
Source text: The mean graph midpoint values of Log10 TGI and Log10 LC50 as well as Log10 GI50 for compounds 17a, 17c, 13a, 13c and 12a is listed in Table-2. […] The mean graph midpoints of Log10 TGI and Log10 LC50 have shown similar pattern to the log10 GI50 mean graph mid points.

K-562 = experiment: In vitro cytotoxicity (NCI protocol, SRB), K-562; settings: Homo sapiens, K562, 48 h
NCIH322M = experiment: In vitro cytotoxicity (NCI protocol, SRB), NCIH322M; settings: Homo sapiens, NCI-H322M, 48 h
CAKI-1 = experiment: In vitro cytotoxicity (NCI protocol, SRB), CAKI-1; settings: Homo sapiens, CAKI-1, 48 h
RXF 393 = experiment: In vitro cytotoxicity (NCI protocol, SRB), RXF 393; settings: Homo sapiens, RXF 393, 48 h
RPMI-8226 = experiment: In vitro cytotoxicity (NCI protocol, SRB), RPMI-8226; settings: Homo sapiens, RPMI-8226, 48 h
HCT-116 = experiment: In vitro cytotoxicity (NCI protocol, SRB), HCT-116; settings: Homo sapiens, HCT-116, 48 h
MALME-3M = experiment: In vitro cytotoxicity (NCI protocol, SRB), MALME-3M; settings: Homo sapiens, 48 h
[3] = against fifty eight cell lines in nine cancer cell panels, read-out: GI50 values
[4] = against almost 50 above cancer cell lines
[5] = against all the cancer cell lines, read-out: GI50 values range

Row | Structure (SMILES) | GI50 (NCI-H23) [nM] | GI50 (MDA-MB-435 [1]; Homo sapiens, MDA-MB-435, 48 h) [nM] | GI50 (CCRF-CEM) [nM] | GI50 (BT-549) [nM] | GI50 (ACHN) [nM] | GI50 (HOP92) [nM] | GI50 (NCI-H522) [nM] | GI50 (TK-10) [nM] | GI50 (MOLT-4) [nM] | GI50 (786-0) [nM] | GI50 (SW-620) [nM] | GI50 (SNB -19) [nM] | GI50 (UACC-62) [nM] | GI50 (COLO-205) [nM] | GI50 (IGROV1) [nM] | GI50 (SF-268) [nM] | GI50 (MDA-MB-435 [2]) [nM] | GI50 (UO-31) [nM] | GI50 (HCT-15) [nM] | GI50 (human tumor cell lines; [3]) [nM] | further results
1 | COc1cc(/C=C\c2cc(OC)c(OC)c(OC)c2)cc(NS(=O)(=O)c2ccc(Cl)cc2)c1OC [13c, (Z)-4-chloro-N-(2,3-dimethoxy-5-(3,4,5-trimethoxystyryl)phenyl)benzenesulfonamide] | 710 | 188 | 388 | 966 | 586 | 720 | 209 | 779 | 672 | 666 | 343 | 745 | 435 | 252 | 914 | 1100 | 271 | 696 | 399 | 20 to 50 | GI50 (SK-MEL-28): 1140 nM; GI50 (UACC-257): 12500 nM; cytotoxicity (human tumor cell lines; [4]): significant cytotoxicity; Log10GI50 mean graph mid point (MG_MID) (human tumor cell lines): −6.27; Log10LC50 mean graph mid point (MG_MID) (human tumor cell lines): −4.03; Log10TGI mean graph mid point (MG_MID) (human tumor cell lines): −4.42; GI50 (K-562): 306 nM; GI50 (NCIH322M): 759 nM; GI50 (CAKI-1): 374 nM; GI50 (RXF 393): 272 nM; GI50 (RPMI-8226): 387 nM; GI50 (HCT-116): 469 nM
2 | COc1ccc(S(=O)(=O)Nc2c(/C=C\c3cc(OC)c(OC)c(OC)c3)ccc(OC)c2O)cc1 [17a, (Z)—N-(2-hydroxy-3-methoxy-6-(3,4,5-trimethoxystyryl)phenyl)-4-methoxybenzenesulfonamide] | 52 | 19 | 30.1 | 50.1 | 61.3 | 1600 | 20.2 | 73.2 | 42.3 | 375 | 40.8 | 60.2 | 38.9 | 406 | 54 | 83.9 | 43.9 | 61.9 | 36.6 | 20 to 50 | GI50 (MDA-MB-435 [1]): 19.2 nM; GI50 (MALME-3M): 1510 nM; GI50 (human tumor cell lines; [5]): 18 to 50 nM; GI50 (human tumor cell lines; against almost all tumor cell lines, read-out: GI50 values): < 50 nM; cytotoxicity (human tumor cell lines; [4]): significant cytotoxicity; Log10GI50 mean graph mid point (MG_MID) (human tumor cell lines): −7.17; Log10LC50 mean graph mid point (MG_MID) (human tumor cell lines): −4.05; Log10TGI mean graph mid point (MG_MID) (human tumor cell lines): −4.55; GI50 (K-562): 28.6 nM; GI50 (NCIH322M): 63.3 nM; GI50 (CAKI-1): 51.6 nM; GI50 (RXF 393): 31.8 nM; GI50 (RPMI-8226): 46.9 nM; GI50 (HCT-116): 32 nM
3 | COc1ccc(/C=C\c2cc(OC)c(OC)c(OC)c2)c(NS(=O)(=O)c2ccc(Cl)cc2)c1O [17c, (Z)-4-chloro-N-(2-hydroxy-3-methoxy-6-(3,4,5-trimethoxystyryl)phenyl)benzenesulfonamide] | 288 | 22.2 | 159 | 353 | 83.8 | 2360 | 84.8 | 998 | 31.5 | 572 | 69.4 | 807 | 63.5 | 1740 | 379 | 380 | 36.7 | 73.9 | 53 | 20 to 50 | GI50 (SK-MEL-28): 84.1 nM; GI50 (UACC-257): 14200 nM; cytotoxicity (human tumor cell lines): significant cytotoxicity; GI50 (human tumor cell lines; [5]): 18 to 50 nM; Log10GI50 mean graph mid point (MG_MID) (human tumor cell lines): −6.71; Log10LC50 mean graph mid point (MG_MID) (human tumor cell lines): −4.07; Log10TGI mean graph mid point (MG_MID) (human tumor cell lines): −4.66; GI50 (K-562): 32.3 nM; GI50 (NCIH322M): 485 nM; GI50 (CAKI-1): 54.2 nM; GI50 (RXF 393): 35.5 nM; GI50 (RPMI-8226): 207 nM; GI50 (HCT-116): 114 nM
